Results reported in ChEMBL document CHEMBL1143353, “Pyrazolo[1,5-a]-1,3,5-triazine as a purine bioisostere: access to potent cyclin-dependent kinase inhibitor (R)-roscovitine analogue” (J Med Chem, 2009).
pIC50: −log10 of the molar value.

Tests used:
KM12 = assay: cells; details: Homo sapiens, KM12, 72 h
Description: Antiproliferative activity against human KM12 cells after 72 hrs by ViaLight assay

OVCAR-5 = assay: cells; details: Homo sapiens, OVCAR-5, 72 h
Description: Antiproliferative activity against human OVCAR5 cells after 72 hrs by ViaLight assay

HOP-92 = assay: cells; details: Homo sapiens, HOP-92, 72 h
Description: Antiproliferative activity against human HOP92 cells after 72 hrs by ViaLight assay

U-251 = assay: cells; details: Homo sapiens, U-251, 72 h
Description: Antiproliferative activity against human U251 cells after 72 hrs by ViaLight assay

NCI-H226 = assay: cells; details: Homo sapiens, NCI-H226, 72 h
Description: Antiproliferative activity against human NCI-H226 cells after 72 hrs by ViaLight assay

NCI-H322M = assay: cells; details: Homo sapiens, 72 h
Description: Antiproliferative activity against human NCI-H322M cells after 72 hrs by ViaLight assay

MOLT-4 = assay: cells; details: Homo sapiens, MOLT-4, 72 h
Description: Antiproliferative activity against human MOLT4 cells after 72 hrs by ViaLight assay

MCF7 = assay: cells; details: Homo sapiens, MCF7, 72 h
Description: Antiproliferative activity against human MCF7 cells after 72 hrs by ViaLight assay

MDA-MB-231 = assay: cells; details: Homo sapiens, MDA-MB-231, 72 h
Description: Antiproliferative activity against human MDA-MB-231 cells after 72 hrs by ViaLight assay

SK-MEL-2 = assay: cells; details: Homo sapiens, SK-MEL-2, 72 h
Description: Antiproliferative activity against human SK-MEL-2 cells after 72 hrs by ViaLight assay

PC-3 = assay: cells; details: Homo sapiens, PC-3, 72 h
Description: Antiproliferative activity against human PC3 cells after 72 hrs by ViaLight assay

SR = assay: cells; details: Homo sapiens, 72 h
Description: Antiproliferative activity against human SR cells after 72 hrs by ViaLight assay

A549 = assay: cells; details: Homo sapiens, A549, 72 h
Description: Antiproliferative activity against human A549 cells after 72 hrs by ViaLight assay

HEK293 = assay: Antiproliferative activity against human HEK293 cells after 48 hrs by MTS reduction assay; type: cell-based; details: HEK293, 48 h
HCC 2998 = assay: cells; details: Homo sapiens, HCC 2998, 72 h
Description: Antiproliferative activity against human HCC2998 cells after 72 hrs by ViaLight assay

MDA-MB-468 = assay: cells; details: Homo sapiens, MDA-MB-468, 72 h, read-out: pGI50 (converted)
Description: Antiproliferative activity against human MDA-MB-468 cells after 72 hrs by ViaLight assay

HCT-116 = assay: cells; details: Homo sapiens, HCT-116, 72 h
Description: Antiproliferative activity against human HCT116 cells after 72 hrs by ViaLight assay

EKVX = assay: cells; details: Homo sapiens, 72 h
Description: Antiproliferative activity against human EKVX cells after 72 hrs by ViaLight assay

ACHN = assay: cells; details: Homo sapiens, 72 h
Description: Antiproliferative activity against human ACHN cells after 72 hrs by ViaLight assay

SH-SY5Y = assay: Antiproliferative activity against human SH-SY5Y cells after 48 hrs by MTS reduction assay; type: functional, cell-based
SF-295 = assay: cells; details: Homo sapiens, SF-295, 72 h
Description: Antiproliferative activity against human SF295 cells after 72 hrs by ViaLight assay

OVCAR-4 = assay: cells; details: Homo sapiens, OVCAR-4, 72 h
Description: Antiproliferative activity against human OVCAR4 cells after 72 hrs by ViaLight assay

SF-539 = assay: cells; details: Homo sapiens, SF-539, 72 h
Description: Antiproliferative activity against human SF539 cells after 72 hrs by ViaLight assay

Malme-3M = assay: cells; details: Homo sapiens, 72 h
Description: Antiproliferative activity against human MALME-3M cells after 72 hrs by ViaLight assay

SK-MEL-5 = assay: cells; details: Homo sapiens, SK-MEL-5, 72 h
Description: Antiproliferative activity against human SK-MEL-5 cells after 72 hrs by ViaLight assay

SK-OV-3 = assay: cells; details: Homo sapiens, SK-OV-3, 72 h, read-out: pGI50 (converted)
Description: Antiproliferative activity against human SKOV3 cells after 72 hrs by ViaLight assay

For `CC[C@H](CO)Nc1nc(NCc2ccccc2)c2ncn(C(C)C)c2n1` [SELICICLIB], the GI50 (KM12) was 5.01 µM, the TGI (KM12) was 63.1 µM and the GI50 (KM12; read-out: pGI50 (converted)) was 5.01 µM. It also gave a TGI (KM12; read-out: pTGI) of 63.1 µM, a GI50 (OVCAR-5) of 39.8 µM and a GI50 (OVCAR-5; read-out: pGI50 (converted)) of 39.8 µM. It also gave a GI50 (HOP-92) of 50.1 µM, a GI50 (HOP-92; read-out: pGI50 (converted)) of 50.1 µM and a GI50 (U-251) of 50.1 µM. It also gave a GI50 (U-251; read-out: pGI50 (converted)) of 12.6 µM, a GI50 (NCI-H226) of 19.9 µM and a GI50 (NCI-H226; read-out: pGI50 (converted)) of 20 µM. For the same molecule, the GI50 (NCI-H322M) was 31.6 µM, the GI50 (NCI-H322M; read-out: pGI50 (converted)) was 31.6 µM and the GI50 (MOLT-4) was 25.1 µM. For the same molecule, the GI50 (MOLT-4; read-out: pGI50 (converted)) was 25.1 µM, the GI50 (MCF7) was 12.6 µM and the GI50 (MCF7; read-out: pGI50 (converted)) was 25.1 µM. For the same molecule, the GI50 (MDA-MB-231) was 39.8 µM, the GI50 (MDA-MB-231; read-out: pGI50 (converted)) was 12.6 µM and the TGI (MDA-MB-231; read-out: pTGI) was 12.6 µM. For the same molecule, the GI50 (SK-MEL-2) was 15.8 µM, the TGI (SK-MEL-2) was 39.8 µM and the GI50 (SK-MEL-2; read-out: pGI50 (converted)) was 15.8 µM. The TGI (SK-MEL-2; read-out: pTGI) was 39.8 µM, the GI50 (PC-3) was 19.9 µM and the TGI (PC-3) was 63.1 µM. The GI50 (PC-3; read-out: pGI50 (converted)) was 12.6 µM, the GI50 (SR) was 5.01 µM and the GI50 (SR; read-out: pGI50 (converted)) was 5.01 µM. It also gave a GI50 (A549) of 12.6 µM, a GI50 (A549; read-out: pGI50 (converted)) of 12.6 µM and a pIC50 (HEK293) of 4.31. The GI50 (HCC 2998) was 31.6 µM, the GI50 (HCC 2998; read-out: pGI50 (converted)) was 31.6 µM and the GI50 (MDA-MB-468) was 25.1 µM. For the same molecule, the GI50 (HCT-116) was 5.01 µM, the GI50 (HCT-116; read-out: pGI50 (converted)) was 5.01 µM and the GI50 (EKVX) was 19.9 µM. For the same molecule, the TGI (EKVX) was 50.1 µM, the GI50 (EKVX; read-out: pGI50 (converted)) was 20 µM and the TGI (EKVX; read-out: pTGI) was 50.1 µM. The GI50 (ACHN) was 12.6 µM, the GI50 (ACHN; read-out: pGI50 (converted)) was 50.1 µM and the pIC50 (SH-SY5Y) was 4.79. For the same molecule, the GI50 (SF-295) was 25.1 µM, the GI50 (SF-295; read-out: pGI50 (converted)) was 25.1 µM and the GI50 (OVCAR-4) was 31.6 µM. For the same molecule, the GI50 (OVCAR-4; read-out: pGI50 (converted)) was 31.6 µM, the TGI (OVCAR-4; read-out: pTGI) was 63.1 µM and the GI50 (SF-539) was 15.8 µM. It also gave a GI50 (SF-539; read-out: pGI50 (converted)) of 15.8 µM, a GI50 (Malme-3M) of 19.9 µM and a TGI (Malme-3M) of 50.1 µM. It also gave a GI50 (Malme-3M; read-out: pGI50 (converted)) of 25.1 µM, a GI50 (SK-MEL-5) of 10 µM and a TGI (SK-MEL-5) of 31.6 µM. For the same molecule, the GI50 (SK-MEL-5; read-out: pGI50 (converted)) was 10 µM, the TGI (SK-MEL-5; read-out: pTGI) was 31.6 µM and the GI50 (SK-OV-3) was 6.31 µM.
